These results are taken from paper PMC11542720, “Modelling of chromatographic and electrophoretic behaviour of imidazoline and alpha adrenergic receptors ligands under different acid-base conditions” (ADMET & DMPK, 2024).

Structures can show the parent of a compound that is named as a salt. Where two headings read alike, the source gives them in different places.

Data set [1] can be described thus: RP-HPLC retention on XTerra RP18, methanol/buffer; extrapolated retention factor log kw and slope S. Conditions: for log kw: intercept, extrapolated to 100 % buffer, methanol/buffer, 25 °C; for S (slope): slope of log k vs methanol volume fraction. The format is physicochemical.
Procedure: All measurements were performed at 25°C with a constant flow rate of 0.8 mL min^-1 and UV detection in the range of 200-280 nm. The injection volume was 20 μL. […] The retention factor k was calculated for each mobile phase composition according to Equation (1):
where tr is the retention time of the tested compound and t0 is the dead volume measured with KNO3 as a non-retentive marker. The values corresponding to 100 % of the buffered eluent (log kw) were determined by extrapolation according to Equation (2):
where log kw is the intercept, S is the slope of the regression line, and φ is the volume fraction of the organic modifier in the mobile phase.
The retention behaviour in HPLC system was monitored by calculating extrapolated retention factors log kw corresponding to pure buffer as mobile phase.
Data set [2] can be described thus: Capillary electrophoresis, effective electrophoretic mobility (acetone as EOF marker). The format is physicochemical. Conditions: for µeff4.4: pH 4.4; for µeff4.4 / µeff7.4 / µeff9.1: I = 25 mmol/L, 11 kV, 25 °C, three replicates.
Procedure: All experiments were performed using the SpectraPhoresis 500-capillary electrophoresis system (Spectra Physics Analytical, USA) with UV detector. Data were recorded and analyzed using ChromQuest software version 4.0 (Thermo Finnigan, USA).
The separations were performed with an uncoated fused capillary (total length 31.5 cm, 50 μm id, effective length 24 cm, Polymicro Technologies, USA) applying a voltage of 11 kV and at 25 °C. The samples were injected hydrodynamically and detection was performed in the 200-280 nm range. The new capillary was rinsed stepwise with 0.1 M NaOH (15 min), water (10 min) and a running buffer (10 min). Finally, a 10 min high voltage was applied through the background electrolyte-filled capillary to equalize the inner surface, stabilize the electroosmotic flow and ensure good reproducibility of injections from run to run. […] Between runs, the capillary was rinsed with the background electrolyte for 1 minute.
where Lt is the total length of the capillary (cm), Leff is the effective length of the capillary (cm), U is the applied voltage (V), tm is the migration time of the analyte (s) and teof is the migration time of the electroneutral EOF marker acetone (s). The calculated μeff values (μeff4.4, μeff7.4 and μeff9.1) were used as dependent variables in QSMR analysis.
For data set [3] the following is noted: cited from earlier work.

For `c1cc2c(c(NC3=NCCN3)c1)CCCC2` [Tramazoline, Tramazoline hydrochloride], the figures for the log kw in data set [1] (pH 4.4), in data set [1] (pH 7.4) and in data set [1] (pH 9.1) were 1.55 ± 0.03, 1.51 ± 0.01 and 1.74 ± 0.01, respectively. Moreover, the “S (slope)” value in data set [1] (pH 4.4) is on record as -3.43 ± 0.07; in data set [1] (pH 7.4), -3.51 ± 0.06; in data set [1] (pH 9.1), -3.37 ± 0.03. Moreover, the µeff4.4 in data set [2] is reported as 24.393 ± 0.067 10^-5 cm^2 V^-1 s^-1. Moreover, the µeff7.4 in data set [2] (pH 7.4) is 22.988 ± 0.060 10^-5 cm^2 V^-1 s^-1. Besides, in data set [2] (pH 9.1), the µeff9.1 is 23.713 ± 0.031 10^-5 cm^2 V^-1 s^-1. Further, the pKa experimental in data set [3] (pH titration, ref 4 (Supplement reference list)) is 10.66 ± 0.05.
As for `Nc1nc(N)c2nc(-c3ccccc3)c(N)nc2n1` [Triamterene, triamterene], in data set [1] (pH 4.4), the log kw is listed as 1.75 ± 0.05 and the “S (slope)” value is on record as -3.96 ± 0.14. In data set [1] (pH 7.4), the log kw is recorded as 1.92 ± 0.05 and the “S (slope)” value is listed as -3.76 ± 0.12. Besides, in data set [1] (pH 9.1), the log kw was 1.93 ± 0.04 and the “S (slope)” value is recorded as -3.75 ± 0.11. For the same molecule, in data set [2], the µeff4.4 is 22.146 ± 0.019 10^-5 cm^2 V^-1 s^-1. In data set [2] (pH 7.4), the “μeff7.4 (effective electrophoretic mobility, text)” value was 1.140±0.053 10^-5 cm^2 / V s and the µeff7.4 is reported as 1.140 ± 0.053 10^-5 cm^2 V^-1 s^-1. For the same molecule, in data set [2] (pH 9.1), the “μeff9.1 (effective electrophoretic mobility)” value was “zero” and the µeff9.1 is on record as 0.000 ± 0.000 10^-5 cm^2 V^-1 s^-1. For the same molecule, the pKa experimental in data set [3] (spectrophotometric, ref 15 (Supplement reference list)) is listed as 7.16.
